In ChEMBL document CHEMBL4602732, “Optimizing Pyrazolopyrimidine Inhibitors of Calcium Dependent Protein Kinase 1 for Treatment of Acute and Chronic Toxoplasmosis” (J Med Chem, 2020):

Columns and labels:
[1] = Inhibition of Toxoplasma gondii full-length wild-type C-terminal His-tagged CDPK1 expressed in Escherichia coli BL21(DE3)V2RpAcYc-LIC+LamP using syntide-2 peptide as substrate incubated for 20 to 40 mins by ELISA
[2] = test system: Toxoplasma gondii; assay: Antiparasitic activity against 2F clone of type 1 Toxoplasma gondii RH tachyzoites expressing beta-galactosidase infected in HFF assessed as reduction in parasite growth measured after 72 hrs by chlorophenol Red-beta-D-galactopyranoside substrate based assay; assay type: functional, organism-based
[3] = Half life in mouse liver microsomes at 10 uM preincubated for 10 mins followed by NADPH addition by LC-MS/MS analysis; assay type: ADME, Microsome; details: for t1/2: microsomes, 10 µM
[4] = Half life in human liver microsomes at 10 uM preincubated for 10 mins followed by NADPH addition by LC-MS/MS analysis; assay type: ADME, Microsome; details: for half-life at 10 µM: liver microsomes; for t1/2: microsomes, 10 µM
[5] = Cytotoxicity against HFF monolayers assessed as cell growth measured after 72 hrs by luciferase reporter gene assay relative to control; assay type: cell-based; details: human, read-out: Activity
[6] = Cytotoxicity against human CMEC/D3 cells assessed as cell growth at 20 uM measured after 72 hrs by cellTiter 96 AQueous non-radioactive cell proliferation assay relative to control; assay type: cell-based, hCMEC/D3; details: read-out: Activity
[7] = Cytotoxicity against human SH-SY5Y cells assessed as cell growth at 20 uM measured after 72 hrs by cellTiter 96 AQueous non-radioactive cell proliferation assay relative to control; assay type: cell-based; details: read-out: Activity

Structure (SMILES)	IC50 [1]	EC50 [2]	t1/2 [3]	half-life at 10 µM [4]	half-life at 10 µM ([3]; liver microsomes)	viability at 72 h [5]	viability at 72 h, 20 µM [6]	viability at 72 h, 20 µM [7]	t1/2 [4]
CO[C@H]1CC[C@H](n2nc(Oc3cc(C(F)(F)F)ccn3)c3c(N)ncnc32)CC1	38 nM	62 nM	13 min	> 145 min					
N#Cc1ccnc(Oc2nn([C@H]3C[C@H](O)C3)c3ncnc(N)c23)c1	38 nM	699 nM		> 145 min	> 145 min				
Nc1ncnc2c1c(Oc1cc(O)ccn1)nn2C1CCC(F)(F)CC1	10 nM	248 nM	68 min	> 145 min					
Nc1ncnc2c1c(Oc1cc(C(F)(F)F)ccn1)nn2C1CCC(F)(F)CC1	34 nM	142 nM	26 min	> 145 min					
CO[C@@]12[C@H](COC(N)=O)C3=C(C(=O)C(C)=C(N)C3=O)N1C[C@@H]1N[C@@H]12 [MITOMYCIN]						25.8%	5%	0%	
Nc1ncnc2c1c(Oc1cccc(C(F)(F)F)c1)nn2[C@H]1C[C@H](O)C1	48 nM	482 nM	22 min						75 min
Nc1ncnc2c1c(Oc1cc(C(F)(F)F)ccn1)nn2[C@H]1C[C@H](F)C1	10 nM	189 nM	53 min						122 min
CC(C)(C)n1nc(Oc2cc(O)ccn2)c2c(N)ncnc21	14 nM	17 nM	37 min						84 min
CC(C)(C)n1nc(Oc2cc(C#N)ccn2)c2c(N)ncnc21	18 nM	112 nM	46 min	> 145 min					
Nc1ncnc2c1c(Oc1cc(C(F)(F)F)ccn1)nn2[C@H]1CC[C@H](CO)CC1	10 nM	25 nM	23 min	> 145 min					
